Test results reported in ChEMBL document CHEMBL4507272 (2021).

How the values were obtained:
[1] = biological target: Muscarinic acetylcholine receptor M1 (Homo sapiens) (UniProt P11229); details: Compound concentration 10.0 uM
[2] = biological target: Serine/threonine-protein kinase RIO2 (Homo sapiens) (UniProt Q9BVS4); details: Compound concentration 1000.0 nM
[3] = biological target: Serine/threonine-protein kinase TAO3 (Homo sapiens) (UniProt Q9H2K8); details: Compound concentration 1000.0 nM
[4] = biological target: Ribosomal protein S6 kinase alpha-2 (Homo sapiens) (UniProt Q15349); details: Compound concentration 1000.0 nM
[5] = biological target: Ephrin type-A receptor 2 (Homo sapiens) (UniProt P29317); details: Compound concentration 1000.0 nM
[6] = biological target: Mitogen-activated protein kinase kinase kinase 14 (Homo sapiens) (UniProt Q99558); details: Compound concentration 1000.0 nM
[7] = biological target: D(1A) dopamine receptor (Homo sapiens) (UniProt P21728); details: Compound concentration 10.0 uM
[8] = biological target: Myosin light chain kinase (Homo sapiens) (UniProt Q32MK0); details: Compound concentration 1000.0 nM
[9] = biological target: Tyrosine-protein kinase Yes (Homo sapiens) (UniProt P07947); details: Compound concentration 1000.0 nM
[10] = biological target: Platelet-derived growth factor receptor beta (Homo sapiens) (UniProt P09619); details: Compound concentration 1000.0 nM
Sequence of Platelet-derived growth factor receptor beta (Homo sapiens) (P09619 whole entry): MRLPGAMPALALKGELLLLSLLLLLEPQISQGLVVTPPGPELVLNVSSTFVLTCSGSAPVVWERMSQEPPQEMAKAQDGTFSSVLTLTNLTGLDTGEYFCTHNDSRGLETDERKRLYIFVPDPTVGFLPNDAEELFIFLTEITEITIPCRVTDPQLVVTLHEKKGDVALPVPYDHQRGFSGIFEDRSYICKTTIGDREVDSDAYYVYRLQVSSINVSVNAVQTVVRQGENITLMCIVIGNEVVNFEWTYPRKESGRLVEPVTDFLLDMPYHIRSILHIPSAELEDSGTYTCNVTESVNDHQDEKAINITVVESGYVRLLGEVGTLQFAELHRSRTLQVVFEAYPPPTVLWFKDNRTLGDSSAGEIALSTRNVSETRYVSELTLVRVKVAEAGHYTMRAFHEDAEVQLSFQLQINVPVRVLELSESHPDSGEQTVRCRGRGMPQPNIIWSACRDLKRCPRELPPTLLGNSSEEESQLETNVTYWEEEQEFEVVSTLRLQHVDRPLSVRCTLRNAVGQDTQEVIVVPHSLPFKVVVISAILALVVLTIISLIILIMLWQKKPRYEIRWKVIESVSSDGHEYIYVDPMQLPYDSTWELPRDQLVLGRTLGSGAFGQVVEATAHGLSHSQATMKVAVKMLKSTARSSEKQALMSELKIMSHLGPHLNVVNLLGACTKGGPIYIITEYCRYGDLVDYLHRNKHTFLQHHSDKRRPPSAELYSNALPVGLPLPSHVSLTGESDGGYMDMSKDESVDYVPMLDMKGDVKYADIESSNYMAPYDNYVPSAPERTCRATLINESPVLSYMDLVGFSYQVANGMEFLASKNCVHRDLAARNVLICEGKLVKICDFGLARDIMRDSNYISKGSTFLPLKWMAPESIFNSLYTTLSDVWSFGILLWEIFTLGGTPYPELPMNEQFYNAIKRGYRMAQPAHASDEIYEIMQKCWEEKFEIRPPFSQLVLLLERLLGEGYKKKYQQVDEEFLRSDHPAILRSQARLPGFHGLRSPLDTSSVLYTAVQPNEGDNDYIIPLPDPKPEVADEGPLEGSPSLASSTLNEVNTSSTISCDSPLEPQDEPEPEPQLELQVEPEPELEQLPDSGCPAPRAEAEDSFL

[11] = biological target: Serine/threonine-protein kinase TBK1 (Homo sapiens) (UniProt Q9UHD2); details: Compound concentration 1000.0 nM
[12] = biological target: Protein-tyrosine kinase 2-beta (Homo sapiens) (UniProt Q14289); details: Compound concentration 1000.0 nM
[13] = biological target: Serine/threonine-protein kinase pim-2 (Homo sapiens) (UniProt Q9P1W9); details: Compound concentration 1000.0 nM
Sequence of Serine/threonine-protein kinase pim-2 (Homo sapiens) (Q9P1W9 whole entry, looked up): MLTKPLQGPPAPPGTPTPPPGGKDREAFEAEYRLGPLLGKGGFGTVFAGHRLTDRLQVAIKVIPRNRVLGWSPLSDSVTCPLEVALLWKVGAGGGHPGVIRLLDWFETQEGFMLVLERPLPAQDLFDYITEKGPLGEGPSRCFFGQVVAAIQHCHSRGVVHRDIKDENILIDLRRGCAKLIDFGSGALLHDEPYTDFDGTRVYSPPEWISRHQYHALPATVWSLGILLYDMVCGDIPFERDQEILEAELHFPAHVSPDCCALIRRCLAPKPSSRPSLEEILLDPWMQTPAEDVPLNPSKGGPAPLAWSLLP

[14] = biological target: Mitogen-activated protein kinase 11 (Homo sapiens) (UniProt Q15759); details: Compound concentration 1000.0 nM
[15] = biological target: Serine/threonine-protein kinase Nek3 (Homo sapiens) (UniProt P51956); details: Compound concentration 1000.0 nM
[16] = biological target: Vascular endothelial growth factor receptor 1 (Homo sapiens) (UniProt P17948); details: Compound concentration 1000.0 nM
[17] = biological target: Serine/threonine-protein kinase MARK2 (Homo sapiens) (UniProt Q7KZI7); details: Compound concentration 1000.0 nM
[18] = system: Epidermal growth factor receptor (Homo sapiens), P00533 [UNDEFINED MUTATION]; details: Compound concentration 1000.0 nM
[19] = biological target: Leukocyte tyrosine kinase receptor (Homo sapiens) (UniProt P29376); details: Compound concentration 1000.0 nM
[20] = system: Phosphatidylinositol 4,5-bisphosphate 3-kinase catalytic subunit alpha isoform (Homo sapiens), P42336 [H1047Y]; details: Compound concentration 1000.0 nM
[21] = system: Receptor-type tyrosine-protein kinase FLT3 (Homo sapiens), P36888 [K663Q]; details: Compound concentration 1000.0 nM
[22] = biological target: Mitogen-activated protein kinase 13 (Homo sapiens) (UniProt O15264); details: Compound concentration 1000.0 nM
[23] = biological target: Cyclin-dependent kinase 18 (Homo sapiens) (UniProt Q07002); details: Compound concentration 1000.0 nM
[24] = biological target: Hepatocyte growth factor receptor (Homo sapiens) (UniProt P08581); details: Compound concentration 1000.0 nM
[25] = biological target: 5-hydroxytryptamine receptor 1B (Homo sapiens) (UniProt P28222); details: Compound concentration 10.0 uM
Sequence of 5-hydroxytryptamine receptor 1B (Homo sapiens) (P28222 whole entry): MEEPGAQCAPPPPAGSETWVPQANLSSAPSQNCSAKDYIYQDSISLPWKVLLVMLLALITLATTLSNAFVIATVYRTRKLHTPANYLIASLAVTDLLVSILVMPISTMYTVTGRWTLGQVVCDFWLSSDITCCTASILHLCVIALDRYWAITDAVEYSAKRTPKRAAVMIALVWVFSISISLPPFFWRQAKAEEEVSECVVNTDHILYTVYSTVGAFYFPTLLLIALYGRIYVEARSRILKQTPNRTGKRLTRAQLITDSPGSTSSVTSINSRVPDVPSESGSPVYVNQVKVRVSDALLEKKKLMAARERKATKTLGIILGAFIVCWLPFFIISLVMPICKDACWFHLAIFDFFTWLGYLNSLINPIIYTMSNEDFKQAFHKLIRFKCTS

[26] = biological target: STE20-like serine/threonine-protein kinase (Homo sapiens) (UniProt Q9H2G2); details: Compound concentration 1000.0 nM
Sequence of STE20-like serine/threonine-protein kinase (Homo sapiens) (Q9H2G2 whole entry, looked up): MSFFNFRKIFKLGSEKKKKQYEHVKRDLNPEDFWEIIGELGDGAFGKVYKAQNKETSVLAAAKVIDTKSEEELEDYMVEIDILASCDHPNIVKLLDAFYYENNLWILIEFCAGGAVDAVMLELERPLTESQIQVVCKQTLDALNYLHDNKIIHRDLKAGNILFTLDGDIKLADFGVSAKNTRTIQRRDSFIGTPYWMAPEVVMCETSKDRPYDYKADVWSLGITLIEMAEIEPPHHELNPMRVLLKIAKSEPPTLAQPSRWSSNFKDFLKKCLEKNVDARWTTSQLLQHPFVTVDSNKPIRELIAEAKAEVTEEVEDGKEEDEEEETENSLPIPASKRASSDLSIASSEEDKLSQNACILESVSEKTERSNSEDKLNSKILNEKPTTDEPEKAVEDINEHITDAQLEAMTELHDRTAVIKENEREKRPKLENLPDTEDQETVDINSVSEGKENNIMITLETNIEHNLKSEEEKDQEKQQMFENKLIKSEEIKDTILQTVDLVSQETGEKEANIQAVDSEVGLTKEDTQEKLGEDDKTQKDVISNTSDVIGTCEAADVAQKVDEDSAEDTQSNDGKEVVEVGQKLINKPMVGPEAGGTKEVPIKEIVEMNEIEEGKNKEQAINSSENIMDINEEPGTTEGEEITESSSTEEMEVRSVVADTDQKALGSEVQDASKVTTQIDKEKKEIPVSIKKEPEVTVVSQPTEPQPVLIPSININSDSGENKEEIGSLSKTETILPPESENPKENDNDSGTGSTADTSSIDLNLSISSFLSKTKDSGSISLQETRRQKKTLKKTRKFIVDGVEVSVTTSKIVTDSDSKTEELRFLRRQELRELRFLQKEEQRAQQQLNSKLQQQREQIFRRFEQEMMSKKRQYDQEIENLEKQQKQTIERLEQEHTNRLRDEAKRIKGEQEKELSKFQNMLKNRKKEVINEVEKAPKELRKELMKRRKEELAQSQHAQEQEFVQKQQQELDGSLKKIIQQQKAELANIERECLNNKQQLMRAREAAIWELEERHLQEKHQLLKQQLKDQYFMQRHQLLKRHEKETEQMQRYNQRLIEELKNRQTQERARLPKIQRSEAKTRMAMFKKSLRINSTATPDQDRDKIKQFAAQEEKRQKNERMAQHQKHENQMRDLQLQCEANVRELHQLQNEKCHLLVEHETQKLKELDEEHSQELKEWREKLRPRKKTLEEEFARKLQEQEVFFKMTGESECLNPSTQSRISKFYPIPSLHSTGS

[27] = biological target: Serine/threonine-protein kinase BRSK1 (Homo sapiens) (UniProt Q8TDC3); details: Compound concentration 1000.0 nM
[28] = biological target: Ephrin type-B receptor 3 (Homo sapiens) (UniProt P54753); details: Compound concentration 1000.0 nM
[29] = biological target: Dual specificity mitogen-activated protein kinase kinase 3 (Homo sapiens) (UniProt P46734); details: Compound concentration 1000.0 nM
[30] = biological target: Phosphorylase b kinase regulatory subunit alpha, liver isoform (Homo sapiens) (UniProt P46019); details: Compound concentration 1000.0 nM
[31] = system: Phosphatidylinositol 4,5-bisphosphate 3-kinase catalytic subunit alpha isoform (Homo sapiens), P42336 [E545A]; details: Compound concentration 1000.0 nM
[32] = system: Phosphatidylinositol 4,5-bisphosphate 3-kinase catalytic subunit alpha isoform (Homo sapiens), P42336 [E545K]; details: Compound concentration 1000.0 nM
Sequence of Phosphatidylinositol 4,5-bisphosphate 3-kinase catalytic subunit alpha isoform (Homo sapiens), P42336 [E545K] (P42336 whole entry E545K, canonical isoform): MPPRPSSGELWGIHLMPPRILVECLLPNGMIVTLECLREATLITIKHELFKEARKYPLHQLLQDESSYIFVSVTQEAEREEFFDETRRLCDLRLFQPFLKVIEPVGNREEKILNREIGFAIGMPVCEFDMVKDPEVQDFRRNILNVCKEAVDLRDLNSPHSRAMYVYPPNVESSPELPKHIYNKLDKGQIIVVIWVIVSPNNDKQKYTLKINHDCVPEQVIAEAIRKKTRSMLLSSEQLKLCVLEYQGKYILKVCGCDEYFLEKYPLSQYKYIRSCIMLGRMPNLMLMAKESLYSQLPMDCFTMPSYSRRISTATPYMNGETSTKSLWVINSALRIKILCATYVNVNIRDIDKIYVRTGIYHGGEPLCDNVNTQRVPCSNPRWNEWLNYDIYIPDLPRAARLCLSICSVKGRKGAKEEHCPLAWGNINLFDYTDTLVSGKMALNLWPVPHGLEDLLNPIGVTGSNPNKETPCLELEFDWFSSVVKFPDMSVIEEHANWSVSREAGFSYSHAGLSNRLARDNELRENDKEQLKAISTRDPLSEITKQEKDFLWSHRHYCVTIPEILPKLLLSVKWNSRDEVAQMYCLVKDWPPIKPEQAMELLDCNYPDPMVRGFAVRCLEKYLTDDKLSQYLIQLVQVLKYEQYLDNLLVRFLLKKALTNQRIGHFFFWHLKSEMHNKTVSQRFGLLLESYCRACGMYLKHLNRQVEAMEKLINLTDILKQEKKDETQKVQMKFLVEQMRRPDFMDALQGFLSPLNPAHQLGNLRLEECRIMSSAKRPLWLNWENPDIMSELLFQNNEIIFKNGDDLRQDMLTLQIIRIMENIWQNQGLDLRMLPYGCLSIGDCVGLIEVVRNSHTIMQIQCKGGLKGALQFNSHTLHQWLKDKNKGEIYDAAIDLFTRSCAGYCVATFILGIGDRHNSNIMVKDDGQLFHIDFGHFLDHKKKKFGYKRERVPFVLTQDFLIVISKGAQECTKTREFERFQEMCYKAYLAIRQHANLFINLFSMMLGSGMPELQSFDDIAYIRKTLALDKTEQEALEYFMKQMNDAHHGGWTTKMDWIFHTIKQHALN

[33] = biological target: Tyrosine-protein kinase FRK (Homo sapiens) (UniProt P42685); details: Compound concentration 1000.0 nM
[34] = biological target: Tyrosine-protein kinase SYK (Homo sapiens) (UniProt P43405); details: Compound concentration 1000.0 nM
[35] = biological target: Atypical kinase COQ8A, mitochondrial (Homo sapiens) (UniProt Q8NI60); details: Compound concentration 1000.0 nM
[36] = biological target: Receptor-interacting serine/threonine-protein kinase 2 (Homo sapiens) (UniProt O43353); details: Compound concentration 1000.0 nM
[37] = biological target: NT-3 growth factor receptor (Homo sapiens) (UniProt Q16288); details: Compound concentration 1000.0 nM
[38] = biological target: Dual specificity protein kinase CLK3 (Homo sapiens) (UniProt P49761); details: Compound concentration 1000.0 nM
[39] = biological target: Phosphatidylinositol 5-phosphate 4-kinase type-2 gamma (Homo sapiens) (UniProt Q8TBX8); details: Compound concentration 1000.0 nM
Sequence of Phosphatidylinositol 5-phosphate 4-kinase type-2 gamma (Homo sapiens) (Q8TBX8 whole entry): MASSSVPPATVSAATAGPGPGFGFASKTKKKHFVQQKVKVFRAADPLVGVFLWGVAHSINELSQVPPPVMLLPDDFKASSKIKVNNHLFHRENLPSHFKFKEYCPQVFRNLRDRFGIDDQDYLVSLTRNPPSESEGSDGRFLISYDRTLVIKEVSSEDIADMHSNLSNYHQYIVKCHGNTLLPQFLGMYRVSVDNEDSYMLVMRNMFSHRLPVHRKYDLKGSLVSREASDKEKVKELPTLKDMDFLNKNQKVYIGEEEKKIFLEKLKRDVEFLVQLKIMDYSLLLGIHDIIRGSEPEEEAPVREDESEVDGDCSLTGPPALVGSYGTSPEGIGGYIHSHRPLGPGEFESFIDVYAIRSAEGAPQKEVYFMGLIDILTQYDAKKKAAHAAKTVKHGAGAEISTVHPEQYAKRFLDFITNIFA

[40] = biological target: Cyclin-dependent kinase 16 (Homo sapiens) (UniProt Q00536); details: Compound concentration 1000.0 nM
Sequence of Cyclin-dependent kinase 16 (Homo sapiens) (Q00536 whole entry): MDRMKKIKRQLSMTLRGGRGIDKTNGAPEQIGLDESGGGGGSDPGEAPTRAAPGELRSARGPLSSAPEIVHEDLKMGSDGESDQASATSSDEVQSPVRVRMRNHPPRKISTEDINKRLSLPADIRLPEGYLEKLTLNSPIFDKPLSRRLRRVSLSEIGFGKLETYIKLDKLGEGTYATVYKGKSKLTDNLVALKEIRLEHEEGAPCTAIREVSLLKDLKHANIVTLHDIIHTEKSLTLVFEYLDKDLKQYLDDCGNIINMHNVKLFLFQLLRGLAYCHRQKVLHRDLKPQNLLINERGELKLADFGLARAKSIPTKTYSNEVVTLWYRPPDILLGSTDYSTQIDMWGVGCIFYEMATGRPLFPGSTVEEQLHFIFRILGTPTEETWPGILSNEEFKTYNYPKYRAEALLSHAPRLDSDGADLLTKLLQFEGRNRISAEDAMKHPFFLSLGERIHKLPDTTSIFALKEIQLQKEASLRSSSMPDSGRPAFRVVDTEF

[41] = biological target: RAC-gamma serine/threonine-protein kinase (Homo sapiens) (UniProt Q9Y243); details: Compound concentration 1000.0 nM
[42] = biological target: Dual specificity testis-specific protein kinase 1 (Homo sapiens) (UniProt Q15569); details: Compound concentration 1000.0 nM
[43] = biological target: cAMP-dependent protein kinase catalytic subunit alpha (Homo sapiens) (UniProt P17612); details: Compound concentration 1000.0 nM
[44] = system: Tyrosine-protein kinase ABL1 (Homo sapiens), P00519 [F317I]; details: Compound concentration 1000.0 nM
[45] = biological target: D(4) dopamine receptor (Homo sapiens) (UniProt P21917); details: Compound concentration 10.0 uM

CC(=O)C1=C(C)N(c2cccc(C(F)(F)F)c2)C(=O)N[C@@H]1c1ccc(C#N)nc1 [BAY-678]
inactive: inhibition [1] -4.65% | residual activity [2] 98% | residual activity [3] 73% | residual activity [4] 72.8% | residual activity [5] 100% | residual activity [6] 100% | inhibition [7] -8.4% | residual activity [8] 100% | residual activity [9] 81.1% | residual activity [10] 94% | residual activity [11] 89.5% | residual activity [12] 100% | residual activity [13] 98.2% | residual activity [14] 100% | residual activity [15] 72% | residual activity [16] 62.4% | residual activity [17] 100% | residual activity [18] 80.3% | residual activity [19] 92.6% | residual activity [20] 87.6% | residual activity [21] 100% | residual activity [22] 74.6% | residual activity [23] 85.1% | residual activity [24] 98.1% | inhibition [25] 6.69% | residual activity [26] 98.4% | residual activity [27] 100% | residual activity [28] 100% | residual activity [29] 95.2% | residual activity [30] 80.8% | residual activity [31] 75.6% | residual activity [32] 77.5% | residual activity [33] 100% | residual activity [34] 100% | residual activity [35] 100% | residual activity [36] 98.7% | residual activity [37] 100% | residual activity [38] 100% | residual activity [39] 80.7% | residual activity [40] 100% | residual activity [41] 90.6% | residual activity [42] 100% | residual activity [43] 92.3% | residual activity [44] 100% | inhibition [45] 15.9%
